Columns and labels:
Type in all cases: in vivo
Wild Buckwheat = assay: post-emergent herbicidal activity, greenhouse; conditions: Table II, 4 WAT
Summary of the method: (§1)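 Seeds or propagules sown in compacted top soil, grown 2–3 weeks in greenhouse, then sprayed with compound solution/suspension containing ~0.4% emulsifier at tabulated rates. Injury scored visually versus untreated controls at ~2 and 4 weeks after treatment, expressed as a herbicidal activity index.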

Panicum Spp = assay: post-emergent herbicidal activity, greenhouse; conditions: Table II, 4 WAT
Summary of the method: as §1

Sugar Beet = assay: post-emergent herbicidal activity, greenhouse; conditions: Table II, 4 WAT
Summary of the method: as §1

Hemp Sesbania = assay: post-emergent herbicidal activity, greenhouse; conditions: Table II, 4 WAT
Summary of the method: as §1

Rice = assay: post-emergent herbicidal activity, greenhouse; conditions: Table II, 4 WAT
Summary of the method: as §1

Sorghum = assay: post-emergent herbicidal activity, greenhouse; conditions: Table II, 4 WAT
Summary of the method: as §1

Downy Brome [1] = assay: post-emergent herbicidal activity, greenhouse; conditions: 4 WAT
Summary of the method: as §1

Quackgrass [2] = assay: post-emergent herbicidal activity, greenhouse; conditions: Table I, 4 WAT
Summary of the method: as §1

Johnsongrass [3] = assay: post-emergent herbicidal activity, greenhouse; conditions: Table I, 4 WAT
Summary of the method: as §1

Barnyardgrass [4] = assay: post-emergent herbicidal activity, greenhouse; conditions: 4 WAT
Summary of the method: as §1

Velvetleaf [5] = assay: post-emergent herbicidal activity, greenhouse; conditions: 4 WAT
Summary of the method: as §1

Yellow Nutsedge [6] = assay: post-emergent herbicidal activity, greenhouse; conditions: Table I, 4 WAT
Summary of the method: as §1

Soybean = assay: post-emergent herbicidal activity, greenhouse; conditions: Table II, 4 WAT
Summary of the method: as §1

Cocklebur [7] = assay: post-emergent herbicidal activity, greenhouse; conditions: 4 WAT
Summary of the method: as §1

Wheat = assay: post-emergent herbicidal activity, greenhouse; conditions: Table II, 4 WAT
Summary of the method: as §1

Morningglory [8] = assay: post-emergent herbicidal activity, greenhouse; conditions: 4 WAT
Summary of the method: as §1

Smartweed [9] = assay: post-emergent herbicidal activity, greenhouse; conditions: 4 WAT
Summary of the method: as §1

Lambsquarters [10] = assay: post-emergent herbicidal activity, greenhouse; conditions: 4 WAT
Summary of the method: as §1

Downy Brome [11] = assay: pre-emergent herbicidal activity, soil incorporation; conditions: Table III, 2 WAT, 11.2 kg/h
Excerpt: (§2) A good grade of top soil is placed in aluminum pans and compacted to a depth of 0.95 to 1.27 cm. from the top of each pan. A predetermined number of seeds or vegetative propagules of each of several plant species are placed on top of the soil in each pan and then pressed down. Herbicidal compositions prepared as in the previous example are applied by admixture with or incorporation in the top layer of soil.
(§3) In this method, the soil required to cover the seeds and propagules is weighed and admixed with a herbicidal composition containing a known amount of the active ingredient (compound of this invention). The pans are then filled with the admixture and leveled. Watering is carried out by permitting the soil in the pans to absorb moisture through apertures in the pan bottoms. The seed and propagule containing pans are placed on a wet sand bench and maintained for approximately two weeks under ordinary conditions of sunlight and watering. At the end of this period, the number of emerged plants of each species is noted and compared to an untreated control.
(§4) The pre-emergent herbicidal activity index used below is based upon average percent control of each species as follows: […]

Quackgrass [12] = assay: as above; conditions: Table III, 2 WAT, 11.2 kg/h
Excerpt: as §2, §3, §4

Johnsongrass [13] = assay: as above; conditions: Table III, 2 WAT, 11.2 kg/h
Excerpt: as §2, §3, §4

Barnyardgrass [14] = assay: as above; conditions: Table III, 2 WAT, 11.2 kg/h
Excerpt: as §2, §3, §4

Velvetleaf [15] = assay: as above; conditions: Table III, 2 WAT, 11.2 kg/h
Excerpt: as §2, §3, §4

Yellow Nutsedge [16] = assay: as above; conditions: Table III, 2 WAT, 11.2 kg/h
Excerpt: as §2, §3, §4

Cocklebur [17] = assay: as above; conditions: Table III, 2 WAT, 11.2 kg/h
Excerpt: as §2, §3, §4

Morningglory [18] = assay: as above; conditions: Table III, 2 WAT, 11.2 kg/h
Excerpt: as §2, §3, §4

Smartweed [19] = assay: as above; conditions: Table III, 2 WAT, 11.2 kg/h
Excerpt: as §2, §3, §4

Lambsquarters [20] = assay: as above; conditions: Table III, 2 WAT, 11.2 kg/h
Excerpt: as §2, §3, §4

CCOCCOC(=O)CNCP(=O)(O)OC(C)C#N (stereo not drawn) [Example 9, glycine, N-[[(1-cyanoethoxy)hydroxyphosphinyl]-methyl],2-ethoxyethyl ester]
0 (0-24% control): post-emergent herbicidal activity index (Wild Buckwheat; 1.12 kg/h)
0 (1-24% control): pre-emergent herbicidal activity index (Downy Brome [11]) | pre-emergent herbicidal activity index (Quackgrass [12]) | pre-emergent herbicidal activity index (Johnsongrass [13]) | pre-emergent herbicidal activity index (Barnyardgrass [14]) | pre-emergent herbicidal activity index (Velvetleaf [15]) | pre-emergent herbicidal activity index (Cocklebur [17]) | pre-emergent herbicidal activity index (Morningglory [18]) | pre-emergent herbicidal activity index (Smartweed [19]) | pre-emergent herbicidal activity index (Lambsquarters [20])
3 (75-99% control): post-emergent herbicidal activity index (Wild Buckwheat; 5.6 kg/h) | post-emergent herbicidal activity index (Sugar Beet; 0.28 kg/h) | post-emergent herbicidal activity index (Rice; 5.6 kg/h) | post-emergent herbicidal activity index (Sorghum; 5.6 kg/h) | post-emergent herbicidal activity index (Downy Brome [1]; Table I, 11.2 kg/h) | post-emergent herbicidal activity index (Barnyardgrass [4]; Table I, 5.6 kg/h) | post-emergent herbicidal activity index (Barnyardgrass [4]; Table I, 11.2 kg/h) | post-emergent herbicidal activity index (Barnyardgrass [4]; Table II, 1.12 kg/h) | post-emergent herbicidal activity index (Barnyardgrass [4]; Table II, 5.6 kg/h) | post-emergent herbicidal activity index (Velvetleaf [5]; Table I, 5.6 kg/h) | post-emergent herbicidal activity index (Velvetleaf [5]; Table II, 1.12 kg/h) | post-emergent herbicidal activity index (Velvetleaf [5]; Table II, 5.6 kg/h) | post-emergent herbicidal activity index (Yellow Nutsedge [6]; 11.2 kg/h) | post-emergent herbicidal activity index (Soybean; 1.12 kg/h) | post-emergent herbicidal activity index (Cocklebur [7]; Table I, 5.6 kg/h) | post-emergent herbicidal activity index (Wheat; 1.12 kg/h) | post-emergent herbicidal activity index (Wheat; 5.6 kg/h) | post-emergent herbicidal activity index (Morningglory [8]; Table I, 11.2 kg/h) | post-emergent herbicidal activity index (Smartweed [9]; Table I, 11.2 kg/h)
2 (50-74% control): post-emergent herbicidal activity index (Sugar Beet; 1.12 kg/h) | post-emergent herbicidal activity index (Rice; 1.12 kg/h) | post-emergent herbicidal activity index (Sorghum; 0.28 kg/h) | post-emergent herbicidal activity index (Downy Brome [1]; Table I, 5.6 kg/h) | post-emergent herbicidal activity index (Downy Brome [1]; Table II, 0.28 kg/h) | post-emergent herbicidal activity index (Barnyardgrass [4]; Table II, 0.28 kg/h) | post-emergent herbicidal activity index (Wheat; 0.28 kg/h) | post-emergent herbicidal activity index (Morningglory [8]; Table I, 5.6 kg/h) | post-emergent herbicidal activity index (Morningglory [8]; Table II, 0.28 kg/h) | post-emergent herbicidal activity index (Morningglory [8]; Table II, 1.12 kg/h) | post-emergent herbicidal activity index (Morningglory [8]; Table II, 5.6 kg/h) | post-emergent herbicidal activity index (Smartweed [9]; Table I, 5.6 kg/h) | post-emergent herbicidal activity index (Smartweed [9]; Table II, 0.28 kg/h) | post-emergent herbicidal activity index (Smartweed [9]; Table II, 1.12 kg/h)
1 (25-49% control): post-emergent herbicidal activity index (Wild Buckwheat; 0.28 kg/h) | post-emergent herbicidal activity index (Hemp Sesbania; 0.28 kg/h) | post-emergent herbicidal activity index (Hemp Sesbania; 1.12 kg/h) | post-emergent herbicidal activity index (Hemp Sesbania; 5.6 kg/h) | post-emergent herbicidal activity index (Rice; 0.28 kg/h) | post-emergent herbicidal activity index (Sorghum; 1.12 kg/h) | post-emergent herbicidal activity index (Downy Brome [1]; Table II, 1.12 kg/h) | post-emergent herbicidal activity index (Velvetleaf [5]; Table II, 0.28 kg/h) | post-emergent herbicidal activity index (Yellow Nutsedge [6]; 5.6 kg/h) | post-emergent herbicidal activity index (Soybean; 0.28 kg/h) | post-emergent herbicidal activity index (Cocklebur [7]; Table II, 0.28 kg/h) | post-emergent herbicidal activity index (Cocklebur [7]; Table II, 1.12 kg/h) | post-emergent herbicidal activity index (Smartweed [9]; Table II, 5.6 kg/h) | pre-emergent herbicidal activity index (Yellow Nutsedge [16])
4 (100% control): post-emergent herbicidal activity index (Panicum Spp; 0.28 kg/h) | post-emergent herbicidal activity index (Panicum Spp; 1.12 kg/h) | post-emergent herbicidal activity index (Panicum Spp; 5.6 kg/h) | post-emergent herbicidal activity index (Sugar Beet; 5.6 kg/h) | post-emergent herbicidal activity index (Downy Brome [1]; Table II, 5.6 kg/h) | post-emergent herbicidal activity index (Quackgrass [2]; 5.6 kg/h) | post-emergent herbicidal activity index (Quackgrass [2]; 11.2 kg/h) | post-emergent herbicidal activity index (Johnsongrass [3]; 5.6 kg/h) | post-emergent herbicidal activity index (Johnsongrass [3]; 11.2 kg/h) | post-emergent herbicidal activity index (Velvetleaf [5]; Table I, 11.2 kg/h) | post-emergent herbicidal activity index (Soybean; 5.6 kg/h) | post-emergent herbicidal activity index (Cocklebur [7]; Table I, 11.2 kg/h) | post-emergent herbicidal activity index (Cocklebur [7]; Table II, 5.6 kg/h) | post-emergent herbicidal activity index (Lambsquarters [10]; Table I, 5.6 kg/h) | post-emergent herbicidal activity index (Lambsquarters [10]; Table I, 11.2 kg/h) | post-emergent herbicidal activity index (Lambsquarters [10]; Table II, 0.28 kg/h) | post-emergent herbicidal activity index (Lambsquarters [10]; Table II, 1.12 kg/h) | post-emergent herbicidal activity index (Lambsquarters [10]; Table II, 5.6 kg/h)
